Data from ChEMBL document CHEMBL1201862, “PubChem BioAssay data set” (2004).
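Tested at 5 concentrations; 48 h exposure; 96-well plates; endpoints linearly interpolated, else capped at highest concentration. At the GI50, growth is halved.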 Active and inactive are the calls of the source. Rule as the data show it: active = GI50 up to about 1.1 µM and inactive = higher.

Assays:
Assay in all cases: growth of human tumour cells (NCI), 48 h
SK-MEL-5 = system: SK-MEL-5
ACHN = system: ACHN
HCT-15 = system: HCT-15
COLO 205 = system: COLO 205
NCI-H23 = system: NCI-H23
HCT-116 = system: HCT-116
HT-29 = system: HT-29
RXF 393 = system: RXF 393
NCI-H522 = system: NCI-H522
MDA-MB-435 = system: MDA-MB-435
SK-MEL-2 = system: SK-MEL-2
HOP-92 = system: HOP-92
Hs-578T = system: Hs-578T
HCC 2998 = system: HCC 2998
OVCAR-4 = system: OVCAR-4
PC-3 = system: PC-3
UACC-257 = system: UACC-257
MDA-N = system: MDA-N
SR = system: SR

SMILES	GI50 (SK-MEL-5)	GI50 (ACHN)	GI50 (HCT-15) [µM]	GI50 (COLO 205)	GI50 (NCI-H23)	GI50 (HCT-116)	GI50 (HT-29)	GI50 (RXF 393)	GI50 (NCI-H522)	GI50 (MDA-MB-435)	GI50 (SK-MEL-2)	GI50 (HOP-92)	GI50 (Hs-578T)	GI50 (HCC 2998)	GI50 (OVCAR-4)	GI50 (PC-3)	GI50 (UACC-257)	GI50 (MDA-N)	GI50 (SR)
Cc1nc2ccccc2c(=O)n1/N=C(\N=N\c1ccc(Cl)cc1)c1ccc(N(C)C)cc1	54.6 µM (inactive)	> 100 µM (inactive)	> 100	> 100 µM (inactive)	72.4 µM (inactive)	46.1 µM (inactive)	> 100 µM (inactive)	80.4 µM (inactive)	38.7 µM (inactive)	–	–	–	–	–	–	–	–	–	–
CC(C)(C)n1nc(C2CC2)cc1NC(=O)Nc1ccc(Cl)cc1	> 100 µM (inactive)	> 100 µM (inactive)	> 100	> 100 µM (inactive)	> 100 µM (inactive)	> 100 µM (inactive)	> 100 µM (inactive)	> 100 µM (inactive)	> 100 µM (inactive)	> 100 µM (inactive)	> 100 µM (inactive)	> 100 µM (inactive)	> 100 µM (inactive)	> 100 µM (inactive)	> 100 µM (inactive)	> 100 µM (inactive)	> 100 µM (inactive)	–	–
Cc1ccc(/C=C2\NC(=S)NC2=O)cc1	> 100 µM (inactive)	–	> 100	> 100 µM (inactive)	> 100 µM (inactive)	> 100 µM (inactive)	> 100 µM (inactive)	> 100 µM (inactive)	> 100 µM (inactive)	> 100 µM (inactive)	> 100 µM (inactive)	–	> 100 µM (inactive)	> 100 µM (inactive)	62.8 µM (inactive)	> 100 µM (inactive)	–	> 100 µM (inactive)	–
O=C(Cn1ccnc1[N+](=O)[O-])NCc1ccc(F)cc1	> 100 µM (inactive)	> 100 µM (inactive)	> 100	> 100 µM (inactive)	> 100 µM (inactive)	–	> 100 µM (inactive)	> 100 µM (inactive)	> 100 µM (inactive)	–	> 100 µM (inactive)	> 100 µM (inactive)	–	–	> 100 µM (inactive)	–	> 100 µM (inactive)	–	–
Cc1[nH]c2ncn3[nH]c(=S)nc3c2c1Cc1ccccc1	> 100 µM (inactive)	> 100 µM (inactive)	> 100	> 100 µM (inactive)	> 100 µM (inactive)	> 100 µM (inactive)	> 100 µM (inactive)	26.5 µM (inactive)	72.4 µM (inactive)	> 100 µM (inactive)	> 100 µM (inactive)	> 100 µM (inactive)	62.7 µM (inactive)	92.5 µM (inactive)	> 100 µM (inactive)	> 100 µM (inactive)	> 100 µM (inactive)	–	–
N#[N+]c1cc2c(cc1Br)-c1ccccc1C2	48.5 µM (inactive)	> 100 µM (inactive)	> 100	> 100 µM (inactive)	> 100 µM (inactive)	> 100 µM (inactive)	> 100 µM (inactive)	78.3 µM (inactive)	58.2 µM (inactive)	81.8 µM (inactive)	83.9 µM (inactive)	11.9 µM (inactive)	> 100 µM (inactive)	85.5 µM (inactive)	> 100 µM (inactive)	–	23.5 µM (inactive)	–	0.413 µM (active)
CC(=O)O[C@H]1CC[C@@]2(C)C(=C[C@H](c3ccc(O)cc3)[C@H]3[C@@H]4CC[C@H](OC(C)=O)[C@@]4(C)CC[C@@H]32)C1	11.4 µM (inactive)	22.6 µM (inactive)	12.3	19.2 µM (inactive)	19.8 µM (inactive)	15.8 µM (inactive)	13.6 µM (inactive)	22.5 µM (inactive)	–	25.2 µM (inactive)	20.2 µM (inactive)	34.4 µM (inactive)	–	20.5 µM (inactive)	15.4 µM (inactive)	14.3 µM (inactive)	22 µM (inactive)	–	–
CCC/C(C)=N/NC(=S)SC.CCC/C(C)=N/NC(=S)SC.[Zn+2]	11.2 µM (inactive)	9.08 µM (inactive)	2.24	14.2 µM (inactive)	13.7 µM (inactive)	10.4 µM (inactive)	3.07 µM (inactive)	17.1 µM (inactive)	11.3 µM (inactive)	11.4 µM (inactive)	13.9 µM (inactive)	–	15.7 µM (inactive)	–	14.1 µM (inactive)	12.4 µM (inactive)	7.46 µM (inactive)	–	–
CC(C)CC1c2[nH]c3ccccc3c2C[C@H]2C(=O)NC(Cc3c[nH]c4ccccc34)C(=O)N12 (stereo partly drawn)	12.7 µM (inactive)	17.8 µM (inactive)	14.6	17.8 µM (inactive)	17.7 µM (inactive)	11.2 µM (inactive)	14.9 µM (inactive)	7.87 µM (inactive)	11.5 µM (inactive)	16 µM (inactive)	16 µM (inactive)	13.7 µM (inactive)	7.11 µM (inactive)	–	15.8 µM (inactive)	11.1 µM (inactive)	14.3 µM (inactive)	–	14 µM (inactive)
COC1=C(OC)C(=O)C(Sc2ccc3ccccc3c2)=CC1=O	3.1 µM (inactive)	8.28 µM (inactive)	9.68	7.24 µM (inactive)	11.2 µM (inactive)	4.58 µM (inactive)	14.7 µM (inactive)	6.85 µM (inactive)	1.82 µM (inactive)	4.25 µM (inactive)	13.6 µM (inactive)	19 µM (inactive)	14.9 µM (inactive)	11.6 µM (inactive)	3.67 µM (inactive)	10 µM (inactive)	7.69 µM (inactive)	–	2.09 µM (inactive)
O=c1n(Cc2ccccc2)c(=O)n2c(=O)n(Cc3ccccc3)c(=O)n12	> 100 µM (inactive)	> 100 µM (inactive)	> 100	38.3 µM (inactive)	> 100 µM (inactive)	> 100 µM (inactive)	54.6 µM (inactive)	–	> 100 µM (inactive)	> 100 µM (inactive)	–	> 100 µM (inactive)	> 100 µM (inactive)	> 100 µM (inactive)	> 100 µM (inactive)	–	> 100 µM (inactive)	> 100 µM (inactive)	> 100 µM (inactive)
O=C(Nc1ccn(C2CC(O)C(CO)O2)c(=O)n1)c1ccccc1 (stereo not drawn)	> 100 µM (inactive)	> 100 µM (inactive)	> 100	> 100 µM (inactive)	> 100 µM (inactive)	> 100 µM (inactive)	> 100 µM (inactive)	–	> 100 µM (inactive)	> 100 µM (inactive)	> 100 µM (inactive)	–	> 100 µM (inactive)	–	> 100 µM (inactive)	> 100 µM (inactive)	> 100 µM (inactive)	> 100 µM (inactive)	–
C=C1c2nc3ccccc3n2C=C(c2ccc(Cl)cc2)N1c1ccccc1	16.1 µM (inactive)	12.3 µM (inactive)	12.1	29.6 µM (inactive)	11.7 µM (inactive)	14 µM (inactive)	–	16.1 µM (inactive)	4 µM (inactive)	21 µM (inactive)	22.5 µM (inactive)	20.7 µM (inactive)	–	13.3 µM (inactive)	10.5 µM (inactive)	26.4 µM (inactive)	18.7 µM (inactive)	33.1 µM (inactive)	5.94 µM (inactive)
CCN(CC)CCN(C)c1ccc(CO)c2c1c(=O)c1ccccc1[s+]2[O-] (stereo not drawn)	2.45 µM (inactive)	11.1 µM (inactive)	4.2	7.06 µM (inactive)	4.08 µM (inactive)	1.88 µM (inactive)	2.11 µM (inactive)	12 µM (inactive)	2.02 µM (inactive)	2 µM (inactive)	19.9 µM (inactive)	8.89 µM (inactive)	12 µM (inactive)	1.43 µM (inactive)	5.6 µM (inactive)	13.7 µM (inactive)	2 µM (inactive)	–	2.28 µM (inactive)
O=C(c1ccc(Cl)cc1)C(O)c1ccc(Cl)cc1 (stereo not drawn)	30.9 µM (inactive)	> 100 µM (inactive)	> 100	> 100 µM (inactive)	70.3 µM (inactive)	> 100 µM (inactive)	> 100 µM (inactive)	> 100 µM (inactive)	42 µM (inactive)	> 100 µM (inactive)	> 100 µM (inactive)	30.8 µM (inactive)	45.3 µM (inactive)	> 100 µM (inactive)	86.3 µM (inactive)	46.6 µM (inactive)	52.8 µM (inactive)	–	25.4 µM (inactive)
O=c1[nH]c(=O)n(C2CC(O)C(CO)O2)cc1OCCCc1ccccc1 (stereo not drawn)	> 100 µM (inactive)	> 100 µM (inactive)	> 100	> 100 µM (inactive)	> 100 µM (inactive)	> 100 µM (inactive)	> 100 µM (inactive)	> 100 µM (inactive)	> 100 µM (inactive)	> 100 µM (inactive)	–	–	> 100 µM (inactive)	–	> 100 µM (inactive)	> 100 µM (inactive)	> 100 µM (inactive)	> 100 µM (inactive)	–
Cc1ccc(CCNC(=S)SCC(NC(=O)CCC(N)C(=O)O)C(=O)NCC(=O)O)cc1 (stereo not drawn)	1.73 µM (inactive)	2.02 µM (inactive)	1.43	2.51 µM (inactive)	2.6 µM (inactive)	2.17 µM (inactive)	1.46 µM (inactive)	0.718 µM (active)	0.327 µM (active)	–	0.385 µM (active)	1.17 µM (inactive)	–	2.04 µM (inactive)	2.99 µM (inactive)	–	1.99 µM (inactive)	–	2.13 µM (inactive)
CCCCCCCCCCCCCCCCCCNc1nc(=O)n(C2CC(O)C(COP(=O)(O)O)O2)cc1F (stereo not drawn)	> 100 µM (inactive)	10.8 µM (inactive)	> 100	> 67.1 µM (inactive)	58.1 µM (inactive)	81.7 µM (inactive)	> 100 µM (inactive)	> 80 µM (inactive)	> 100 µM (inactive)	> 100 µM (inactive)	> 100 µM (inactive)	–	> 100 µM (inactive)	15 µM (inactive)	> 100 µM (inactive)	26.1 µM (inactive)	> 100 µM (inactive)	> 100 µM (inactive)	–
